From patent US8497281B2, “Aryl- and heteroarylcarbonyl derivatives of hexahydroindenopyridine and octahydrobenzoquinoline” (Vitae Pharmaceuticals, Inc., priority 2009, dated 2013) come the findings set out here.

Each structure is given as a SMILES string.

The first data set in a line: Metabolic stability in pooled liver microsomes. The format is in vitro ADME, human. Conditions: human liver microsomes, 37° C., test compound 1 μM, microsomal protein 0.5 mg/mL, NADPH 1 mM. The procedure: The metabolic degradation of the test compound is assayed at 37° C. with pooled liver microsomes from various species. The final incubation volume of 100 μl per time point contains TRIS buffer pH 7.6 at room temperature (0.1 M), magnesium chloride (5 mM), microsomal protein (0.5 mg/mL) and the test compound at a final concentration of 1 μM. Following a short preincubation period at 37° C., the reactions are initiated by addition of beta-nicotinamide adenine dinucleotide phosphate, reduced form (NADPH, 1 mM), and terminated by transferring an aliquot into solvent after different time points. After centrifugation (10000 g, 5 min), an aliquot of the supernatant is assayed by LC-MS/MS for the amount of parent compound. The half-life is determined by the slope of the semi-logarithmic plot of the concentration-time profile.
With `O=C(c1ccc2[nH]cnc2c1)N1CCC[C@@H]2c3ccccc3CC[C@@H]21` [Example 2, (1H-Benzoimidazol-5-yl)-[(4a-S,10b-R)-2,3,4a,5,6,10b-hexahydro-1H-benzo[l]quinolin-4-yl]-methanone], the “Stability in human liver microsomes, t1/2” value was 0.483 h.

In the case of `O=C(c1ccc2[nH]cnc2c1)N1CCC[C@@H]2c3ccccc3CC[C@@H]21` (relative stereo) [Example 1, (1H-Benzoimidazol-5-yl)-(cis-2,3,4a,5,6,10b-hexahydro-1H-benzo[f]quinolin-4-yl)-methanone], the “Stability in human liver microsomes, t1/2” value was more than 1.5 h.

The data set is the same for the next values; noted with them: human, pooled liver microsomes, pH 7.6, human liver microsomes, 37° C., test compound 1 μM, microsomal protein 0.5 mg/mL, NADPH 1 mM; read-out: Stability in human liver microsomes, t1/2.
For the molecule `C[C@]12CCCN(C(=O)c3ccc4[nH]cnc4c3)[C@H]1CCc1ccccc12` (relative stereo) [Example 10, (1H-Benzoimidazol-5-yl)-(cis-10b-methyl-2,3,4a,5,6,10b-hexahydro-1H-benzo[f]quinolin-4-yl)-methanone], the half-life at 1 μM is more than 0.75 h.

`N#Cc1ccc2c(c1)CC[C@H]1[C@@H]2CCCN1C(=O)c1ccc2[nH]cnc2c1` (relative stereo) [Example 42, cis-4-(1H-Benzoimidazole-5-carbonyl)-1,2,3,4,4a,5,6,10b-octahydro-benzo[f]quinoline-8-carbonitrile]: the half-life at 1 μM was more than 1.5 h.

For `C[C@H]1CCN(C(=O)c2ccc3[nH]cnc3c2)[C@H]2Cc3ccccc3[C@@H]12` [Example 146, (1H-Benzoimidazol-5-yl)-(cis-4-methyl-2,3,4,4a,9,9a-hexahydro-indeno[2,1-b]pyridin-1-yl)-methanone], the half-life at 1 μM is more than 0.75 h.

`Cc1cc2[nH]cnc2cc1C(=O)N1CCC[C@@H]2c3cc(C#N)ccc3C[C@@H]21` [Example 153, (4a-R,9a-S)-1-(6-Methyl-1H-benzoimidazole-5-carbonyl)-2,3,4,4a,9,9a-hexahydro-1H-indeno[2,1-b]pyridine-6-carbonitrile]: the half-life at 1 μM is more than 1.5 h.

For the molecule `Cc1cc(C(=O)N2CCC[C@@H]3c4cc(C#N)ccc4C[C@@H]32)cc2nc[nH]c12` [Example 152, (4a-R,9a-S)-1-(7-Methyl-1H-benzoimidazole-5-carbonyl)-2,3,4,4a,9,9a-hexahydro-1H-indeno[2,1-b]pyridine-6-carbonitrile], the half-life at 1 μM was more than 1.5 h.

On to `N#Cc1ccc2c(c1)[C@@H]1CCCN(C(=O)c3ccc4[nH]cnc4c3)[C@@H]1C2` [Example 108, (4a-S,9a-R)-1-(1H-Benzoimidazole-5-carbonyl)-2,3,4,4a,9,9a-hexahydro-1H-indeno[2,1-b]pyridine-6-carbonitrile], for which the half-life at 1 μM was more than 1.5 h.

As for `O=C(c1ccc2[nH]cnc2c1)N1CCC[C@@H]2c3ccccc3C[C@@H]21` (relative stereo) [Example 93, (1H-Benzoimidazol-5-yl)-(cis-2,3,4,4a,9,9a-hexahydro-indeno[2,1-b]pyridin-1-yl)-methanone], the half-life at 1 μM is more than 1.5 h.

Turning to `C[C@]12CCCN(C(=O)c3ccc4[nH]cnc4c3)[C@@H]1CCc1ccccc12` (relative stereo) [Example 11, (1H-Benzoimidazol-5-yl)-(trans-10b-methyl-2,3,4a,5,6,10b-hexahydro-1H-benzo[t]quinolin-4-yl)-methanone], the half-life at 1 μM worked out at 0.633 h.

Take `C#Cc1ccc2c(c1)[C@H]1CCCN(C(=O)c3ccc4[nH]cnc4c3)[C@H]1C2` (relative stereo) [Example 155, (1H-Benzoimidazol-5-yl)-(cis-6-ethynyl-2,3,4,4a,9,9a-hexahydro-indeno[2,1-b]pyridin-1-yl)-methanone]: the half-life at 1 μM was found to be 0.467 h.

On to `N#Cc1ccc2c(c1)[C@H]1CCCN(C(=O)c3ccc4[nH]cnc4c3)[C@H]1C2` (relative stereo) [Example 106, cis-1-(1H-Benzoimidazole-5-carbonyl)-2,3,4,4a,9,9a-hexahydro-1H-indeno[2,1-b]pyridine-6-carbonitrile], for which the half-life at 1 μM is more than 1.5 h.

For the molecule `N#Cc1ccc2c(c1)C[C@H]1[C@@H]2CCCN1C(=O)c1ccc2[nH]cnc2c1` [Example 148, (4a-R,9a-S)-1-(1H-Benzoimidazole-5-carbonyl)-2,3,4,4a,9,9a-hexahydro-1H-indeno[2,1-b]pyridine-7-carbonitrile], the half-life at 1 μM was more than 1.5 h.

Take `NC(=O)c1ccc2c(c1)CC[C@H]1[C@@H]2CCCN1C(=O)c1ccc2[nH]cnc2c1` (relative stereo) [Example 37, cis-4-(1H-Benzoimidazole-5-carbonyl)-1,2,3,4,4a,5,6,10b-octahydro-benzo[f]quinoline-8-carboxylic acid amide]: the half-life at 1 μM is more than 1.5 h.

Regarding `O=C(c1ccc2[nH]cnc2c1)N1CCC[C@@H]2c3cc(F)cc(F)c3CC[C@@H]21` (relative stereo) [Example 20, (1H-Benzoimidazol-5-yl)-(cis-7,9-difluoro-2,3,4a,5,6,10b-hexahydro-1H-benzo[f]quinolin-4-yl)-methanone], the half-life at 1 μM is more than 1.5 h.

As for `CC[C@]12CCCN(C(=O)c3ccc4[nH]cnc4c3)[C@@H]1CCc1ccccc12` (relative stereo) [Example 105, (1H-Benzoimidazol-5-yl)-(trans-10b-ethyl-2,3,4a,5,6,10b-hexahydro-1H-benzo[f]quinolin-4-yl)-methanone], the half-life at 1 μM amounted to 0.367 h.

For the molecule `N#Cc1ccc2c(c1)[C@H]1CCCN(C(=O)c3ccc4[nH]cnc4c3)[C@H]1C2` [Example 107, (4a-R,9a-S)-1-(1H-Benzoimidazole-5-carbonyl)-2,3,4,4a,9,9a-hexahydro-1H-indeno[2,1-b]pyridine-6-carbonitrile], the half-life at 1 μM is more than 1.5 h.

Consider `N#Cc1ccc2c(c1)[C@H]1CCCN(C(=O)c3ccc4[nH]cnc4c3)[C@H]1CC2` (relative stereo) [Example 91, cis-4-(1H-Benzoimidazole-5-carbonyl)-1,2,3,4,4a,5,6,10b-octahydro-benzo[f]quinoline-9-carbonitrile], for which the half-life at 1 μM was more than 1.5 h.
